Experimental data taken from PubChem BioAssay (NCI).
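Values below derive from 48-hour exposures of cells grown in 96-well plates, with endpoints linearly interpolated between the two concentrations bracketing the appropriate inhibition level. TGI marks complete inhibition of growth.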

Columns and labels:
Assay in all cases: NCI anticancer screen, dose series, 48 h
[1] = test system: A498 renal
[2] = test system: KM12 colon
[3] = test system: IGROV1 ovarian
[4] = test system: NCI-H460 lung
[5] = test system: MALME-3M melanoma
[6] = test system: UACC-62 melanoma
[7] = test system: EKVX NSCLC
[8] = test system: T-47D breast
[9] = test system: UO-31 renal
[10] = test system: MDA-N
[11] = test system: OVCAR-3 ovarian
[12] = test system: M14 melanoma
[13] = test system: SF-295 CNS
[14] = test system: RPMI-8226 leukemia
[15] = test system: PC-3 prostate
[16] = test system: ACHN renal
[17] = test system: SN12C renal
[18] = test system: OVCAR-4 ovarian
[19] = test system: TK-10 renal
[20] = test system: HOP-62 NSCLC
[21] = test system: RXF 393 renal
[22] = test system: SK-MEL-2 melanoma
[23] = test system: MOLT-4 leukemia
[24] = test system: OVCAR-8 ovarian
[25] = test system: SNB-75 CNS
[26] = test system: NCI-H522 lung
[27] = test system: HS 578T breast
[28] = test system: SNB-19 CNS
[29] = test system: SF-539 CNS
[30] = test system: HCT-15 colon
[31] = test system: CCRF-CEM leukemia
[32] = test system: K-562 leukemia
[33] = test system: HL-60(TB) leukemia
[34] = test system: HCC-2998 colon
[35] = test system: NCI-H226 lung
[36] = test system: U251 CNS
[37] = test system: HCT-116 colon
[38] = test system: DU-145 prostate
[39] = test system: MCF7 breast
[40] = test system: 786-0 renal
[41] = test system: SK-OV-3 ovarian
[42] = test system: LOX IMVI melanoma
[43] = test system: UACC-257 melanoma
[44] = test system: MDA-MB-231 breast
[45] = test system: COLO 205 colon
[46] = test system: SK-MEL-5 melanoma
[47] = test system: SK-MEL-28 melanoma
[48] = test system: NCI-H23 lung
[49] = test system: NCI/ADR-RES ovarian
[50] = test system: SF-268 CNS
[51] = test system: CAKI-1 renal
[52] = test system: OVCAR-5 ovarian
[53] = test system: A549 NSCLC
[54] = test system: HOP-92 NSCLC
[55] = test system: SW-620 colon
[56] = test system: MDA-MB-435
[57] = test system: HT29 colon
[58] = test system: BT-549 breast

Measured: TGI

O=C1CCC2c3ccccc3NCN12 (configuration not stated)
not listed: [58]
> 100 µM: all other assays above

CC(O)(C#N)CC(O)(C(F)(F)Cl)C(F)(F)Cl (configuration not stated)
not listed: [4] | [5] | [6] | [8] | [14] | [20] | [22] | [23] | [26] | [27] | [31] | [32] | [33] | [34] | [39] | [40] | [41] | [42] | [43] | [58]
> 10 µM: all other assays above

S=C(N/N=C/c1ccccn1)N1CC2CCC(CC2)C1
5.7 µM: [41]
11.4 µM: [5]
2.93 µM: [1]
20.4 µM: [18]
18.6 µM: [34]
0.252 µM: [24]
0.461 µM: [20]
0.287 µM: [29]
1.82 µM: [19] | [51]
14.3 µM: [28]
0.207 µM: [4]
7.76 µM: [2]
3.88 µM: [37]
18 µM: [52]
17.3 µM: [57]
0.531 µM: [6]
12 µM: [38]
11.1 µM: [13]
15.5 µM: [22]
3.19 µM: [21]
30.6 µM: [27]
14.9 µM: [30]
12.4 µM: [42]
0.242 µM: [40]
15.1 µM: [56]
13 µM: [15]
7.05 µM: [7]
14.8 µM: [50]
0.209 µM: [12]
0.143 µM: [33]
< 0.039 µM: [43]
7.7 µM: [48]
14.2 µM: [53]
14.5 µM: [55]
17.4 µM: [47]
13.9 µM: [11] | [54]
0.645 µM: [17]
3.64 µM: [26]
1.53 µM: [35]
4.6 µM: [36]
0.868 µM: [25]
12.5 µM: [58]
2.24 µM: [9]
13.1 µM: [10]
2.15 µM: [16]
